Measurements published in ChEMBL document CHEMBL1136030, “Synthesis and antiaggregant properties of Stabilized analogues of polyunsaturated fatty acid metabolites” (Bioorg Med Chem Lett, 2002).

What was measured:
[1] = species: Oryctolagus cuniculus; test: Anti-platelet activity was measured by studying their antagonist effects on rabbit platelets aggregated with U-46,619.; format: functional
[2] = species: Homo sapiens; test: Anti-platelet activity was measured by studying their antagonist effects on human platelets aggregated with collagen; format: functional

Compound | IC50 [1] [nM] | IC50 [2] [nM]
O=C(O)CCn1c2c(c3ccccc31)CC(NS(=O)(=O)c1ccc(F)cc1)CC2 (single isomer, unassigned) [RAMATROBAN] |  | 50
CCCCCC(O)c1cccc(CCCCCC(=O)O)c1 (stereo not given) | 500 | 27000
CCCCC/C=C\C[C@@H](O)/C=C/C=C\C/C=C\CCCC(=O)O | 4000 | 

Now from value to compound:

IC50 [1] [nM] | IC50 [2] [nM] | Compound
900 | 20000 | CCCCCC(O)c1cccc(/C=C\CCCC(=O)O)c1 (stereo not given)
1600 | 57000 | CCCCCC(O)c1cccc(/C=C\CCCC(=O)O)n1 (stereo not given)
500 | 7000 | CCCCCC(=O)c1cccc(/C=C\CCCC(=O)O)c1
